In the kinase profiling compilation of Christmann-Franck et al. (2016):

Legend:
Test in all cases: radiometric filter-binding kinase assay
INSR (human) = INSR (human) (UniProt P06213)
PAK4 (human) = PAK4 (human) (UniProt O96013)
MARK2 (human) = MARK2 (human) (UniProt Q7KZI7)
MAPK12 (human) = MAPK12 (human) (UniProt P53778)
NUAK1 (human) = NUAK1 (human) (UniProt O60285)
MARK1 (human) = MARK1 (human) (UniProt Q9P0L2)
IRAK4 (human) = IRAK4 (human) (UniProt Q9NWZ3)
MST4 (human) = MST4 (human) (UniProt Q9P289)
MAP3K11 (human) = MAP3K11 (human) (UniProt Q16584)
GSK3B (human) = GSK3B (human) (UniProt P49841)
MAPKAPK2 (human) = MAPKAPK2 (human) (UniProt P49137)
Chain of MAPKAPK2 (human) (P49137 whole entry, looked up): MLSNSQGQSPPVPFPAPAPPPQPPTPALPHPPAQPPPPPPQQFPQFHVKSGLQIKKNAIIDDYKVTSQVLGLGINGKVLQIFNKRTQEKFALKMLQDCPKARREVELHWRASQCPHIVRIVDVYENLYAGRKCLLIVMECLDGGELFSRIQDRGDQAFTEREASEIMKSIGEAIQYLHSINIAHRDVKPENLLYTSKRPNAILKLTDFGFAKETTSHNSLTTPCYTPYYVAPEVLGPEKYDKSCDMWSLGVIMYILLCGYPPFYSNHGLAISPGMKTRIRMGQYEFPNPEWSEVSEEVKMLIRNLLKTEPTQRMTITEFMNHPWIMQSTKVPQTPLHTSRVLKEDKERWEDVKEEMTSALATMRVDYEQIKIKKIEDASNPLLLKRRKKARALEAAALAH

PAK6 (human) = PAK6 (human) (UniProt Q9NQU5)
MAP3K9 (human) = MAP3K9 (human) (UniProt P80192)
HIPK3 (human) = HIPK3 (human) (UniProt Q9H422)
EPHB3 (human) = EPHB3 (human) (UniProt P54753)
Chain of EPHB3 (human) (P54753 whole entry, looked up): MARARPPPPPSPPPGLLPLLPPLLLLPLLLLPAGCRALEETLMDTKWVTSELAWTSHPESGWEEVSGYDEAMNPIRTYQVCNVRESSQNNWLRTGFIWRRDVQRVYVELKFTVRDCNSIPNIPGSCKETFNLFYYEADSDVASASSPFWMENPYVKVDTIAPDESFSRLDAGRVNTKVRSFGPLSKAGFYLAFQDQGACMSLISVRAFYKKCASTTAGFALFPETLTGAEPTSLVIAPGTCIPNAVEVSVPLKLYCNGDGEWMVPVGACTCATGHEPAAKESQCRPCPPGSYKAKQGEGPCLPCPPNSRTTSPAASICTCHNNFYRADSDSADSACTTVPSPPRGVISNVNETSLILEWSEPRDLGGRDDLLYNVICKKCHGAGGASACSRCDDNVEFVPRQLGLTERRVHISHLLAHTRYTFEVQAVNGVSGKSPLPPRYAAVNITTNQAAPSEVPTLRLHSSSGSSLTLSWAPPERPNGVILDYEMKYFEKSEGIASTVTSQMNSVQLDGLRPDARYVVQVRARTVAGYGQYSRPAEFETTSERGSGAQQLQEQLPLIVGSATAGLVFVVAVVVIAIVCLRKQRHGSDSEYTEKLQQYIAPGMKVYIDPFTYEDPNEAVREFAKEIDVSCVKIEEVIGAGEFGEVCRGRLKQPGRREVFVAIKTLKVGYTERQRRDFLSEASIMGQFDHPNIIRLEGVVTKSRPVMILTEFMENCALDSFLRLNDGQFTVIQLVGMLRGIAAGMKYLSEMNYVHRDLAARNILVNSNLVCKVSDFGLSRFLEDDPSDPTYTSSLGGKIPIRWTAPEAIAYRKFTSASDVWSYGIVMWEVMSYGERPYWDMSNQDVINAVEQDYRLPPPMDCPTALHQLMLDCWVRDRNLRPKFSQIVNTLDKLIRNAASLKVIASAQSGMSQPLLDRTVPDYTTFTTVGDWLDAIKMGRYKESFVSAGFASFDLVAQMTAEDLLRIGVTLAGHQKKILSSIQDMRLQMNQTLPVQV

MELK (human) = MELK (human) (UniProt Q14680)
Chain of MELK (human) (Q14680 whole entry, looked up): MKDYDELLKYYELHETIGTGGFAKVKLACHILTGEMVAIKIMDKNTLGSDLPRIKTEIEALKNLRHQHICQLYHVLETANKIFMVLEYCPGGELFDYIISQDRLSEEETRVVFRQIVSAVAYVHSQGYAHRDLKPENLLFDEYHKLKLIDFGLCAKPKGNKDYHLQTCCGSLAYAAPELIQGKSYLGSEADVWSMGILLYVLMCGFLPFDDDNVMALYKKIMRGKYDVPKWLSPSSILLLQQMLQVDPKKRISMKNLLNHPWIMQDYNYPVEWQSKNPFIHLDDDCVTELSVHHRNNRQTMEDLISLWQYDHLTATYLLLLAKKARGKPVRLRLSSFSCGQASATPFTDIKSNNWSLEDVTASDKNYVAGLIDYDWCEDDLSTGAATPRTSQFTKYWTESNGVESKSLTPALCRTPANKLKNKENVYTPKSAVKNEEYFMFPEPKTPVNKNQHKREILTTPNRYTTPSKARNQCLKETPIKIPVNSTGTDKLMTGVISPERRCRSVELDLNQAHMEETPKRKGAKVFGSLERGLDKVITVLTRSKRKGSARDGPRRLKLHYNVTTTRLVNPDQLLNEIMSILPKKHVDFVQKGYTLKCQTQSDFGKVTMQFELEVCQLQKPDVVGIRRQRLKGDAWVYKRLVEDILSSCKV

MAP3K1 (human) = MAP3K1 (human) (UniProt Q13233)
EEF2K (human) = EEF2K (human) (UniProt O00418)
Chain of EEF2K (human) (O00418 whole entry, looked up): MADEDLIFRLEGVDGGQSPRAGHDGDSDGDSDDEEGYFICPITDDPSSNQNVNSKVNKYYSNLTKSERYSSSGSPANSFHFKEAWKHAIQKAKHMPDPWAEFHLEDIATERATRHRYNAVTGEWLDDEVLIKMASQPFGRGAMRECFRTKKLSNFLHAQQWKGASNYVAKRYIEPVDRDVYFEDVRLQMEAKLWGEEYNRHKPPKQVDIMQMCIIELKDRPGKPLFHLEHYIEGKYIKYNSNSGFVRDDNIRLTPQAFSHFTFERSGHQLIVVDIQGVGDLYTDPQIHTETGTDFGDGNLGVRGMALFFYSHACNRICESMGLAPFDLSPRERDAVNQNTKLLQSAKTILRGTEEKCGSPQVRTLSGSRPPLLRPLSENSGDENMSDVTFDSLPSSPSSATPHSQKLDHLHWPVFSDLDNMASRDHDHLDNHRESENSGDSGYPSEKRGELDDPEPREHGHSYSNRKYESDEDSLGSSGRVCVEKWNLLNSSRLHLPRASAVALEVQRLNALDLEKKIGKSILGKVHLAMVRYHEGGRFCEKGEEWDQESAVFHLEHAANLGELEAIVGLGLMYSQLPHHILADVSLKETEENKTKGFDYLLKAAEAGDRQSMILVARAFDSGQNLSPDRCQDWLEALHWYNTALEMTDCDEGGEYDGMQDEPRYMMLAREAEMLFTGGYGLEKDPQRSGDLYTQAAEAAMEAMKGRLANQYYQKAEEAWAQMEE

DYRK2 (human) = DYRK2 (human) (UniProt Q92630); conditions: compound 0.1 µM

Chain of PAK4 (human) (O96013 whole entry, looked up): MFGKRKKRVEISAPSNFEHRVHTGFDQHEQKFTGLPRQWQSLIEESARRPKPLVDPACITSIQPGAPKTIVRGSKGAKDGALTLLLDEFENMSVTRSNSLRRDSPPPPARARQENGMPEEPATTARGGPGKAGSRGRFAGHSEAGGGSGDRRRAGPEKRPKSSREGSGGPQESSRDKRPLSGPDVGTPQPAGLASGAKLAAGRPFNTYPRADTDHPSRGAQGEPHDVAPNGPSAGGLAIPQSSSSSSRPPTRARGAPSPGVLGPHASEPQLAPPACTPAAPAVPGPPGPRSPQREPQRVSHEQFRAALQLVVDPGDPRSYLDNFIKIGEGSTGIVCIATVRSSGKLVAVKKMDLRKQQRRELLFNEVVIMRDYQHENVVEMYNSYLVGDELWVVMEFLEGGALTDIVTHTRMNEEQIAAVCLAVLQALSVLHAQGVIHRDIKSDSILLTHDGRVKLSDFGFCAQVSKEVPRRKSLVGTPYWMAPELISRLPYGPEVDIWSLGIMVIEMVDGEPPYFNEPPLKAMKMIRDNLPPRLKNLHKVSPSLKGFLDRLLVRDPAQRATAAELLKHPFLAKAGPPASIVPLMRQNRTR
Chain of INSR (human) (P06213 whole entry, looked up): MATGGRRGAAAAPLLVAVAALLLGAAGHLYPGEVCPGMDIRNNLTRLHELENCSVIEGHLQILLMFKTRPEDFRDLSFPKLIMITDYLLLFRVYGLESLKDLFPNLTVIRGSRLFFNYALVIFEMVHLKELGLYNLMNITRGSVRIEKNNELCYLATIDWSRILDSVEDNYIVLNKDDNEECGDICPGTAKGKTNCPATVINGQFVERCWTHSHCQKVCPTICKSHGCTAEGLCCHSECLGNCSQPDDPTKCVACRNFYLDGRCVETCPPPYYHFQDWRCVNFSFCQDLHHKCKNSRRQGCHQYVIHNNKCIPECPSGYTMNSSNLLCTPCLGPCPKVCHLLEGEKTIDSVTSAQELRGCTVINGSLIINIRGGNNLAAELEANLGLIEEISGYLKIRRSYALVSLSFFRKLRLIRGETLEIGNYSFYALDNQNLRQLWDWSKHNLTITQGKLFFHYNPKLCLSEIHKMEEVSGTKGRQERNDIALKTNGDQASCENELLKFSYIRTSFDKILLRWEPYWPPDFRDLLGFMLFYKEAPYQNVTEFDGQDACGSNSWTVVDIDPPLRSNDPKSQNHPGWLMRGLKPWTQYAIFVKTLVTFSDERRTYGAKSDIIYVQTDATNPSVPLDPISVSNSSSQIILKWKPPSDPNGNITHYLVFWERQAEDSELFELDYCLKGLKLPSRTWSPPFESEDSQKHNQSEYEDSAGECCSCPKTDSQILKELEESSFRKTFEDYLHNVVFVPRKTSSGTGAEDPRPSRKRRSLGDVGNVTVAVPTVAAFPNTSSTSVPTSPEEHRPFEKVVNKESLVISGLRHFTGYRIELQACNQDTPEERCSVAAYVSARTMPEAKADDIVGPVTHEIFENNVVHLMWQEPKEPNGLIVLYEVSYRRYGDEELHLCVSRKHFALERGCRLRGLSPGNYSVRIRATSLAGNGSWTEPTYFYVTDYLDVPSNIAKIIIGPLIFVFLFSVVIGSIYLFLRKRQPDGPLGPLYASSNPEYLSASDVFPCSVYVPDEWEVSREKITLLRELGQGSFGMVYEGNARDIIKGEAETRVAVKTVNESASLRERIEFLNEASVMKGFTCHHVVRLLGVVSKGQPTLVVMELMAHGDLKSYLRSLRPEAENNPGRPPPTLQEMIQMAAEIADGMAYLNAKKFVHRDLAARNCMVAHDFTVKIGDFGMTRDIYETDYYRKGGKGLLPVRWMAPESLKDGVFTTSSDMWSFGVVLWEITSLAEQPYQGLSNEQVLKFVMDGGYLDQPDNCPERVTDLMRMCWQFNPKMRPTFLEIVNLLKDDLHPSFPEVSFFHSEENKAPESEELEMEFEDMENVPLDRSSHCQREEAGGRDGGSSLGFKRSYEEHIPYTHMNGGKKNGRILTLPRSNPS

SMILES: c1ccc2c(-c3cnn4cc(-c5ccc(N6CCNCC6)cc5)cnc34)ccnc2c1
- residual activity (INSR (human); compound 0.1 µM): 105%
- residual activity (INSR (human); compound 1.0 µM): 107%
- residual activity (INSR (human); compound 10.0 µM): 93%
- residual activity (PAK4 (human); compound 0.1 µM): 82%
- residual activity (PAK4 (human); compound 1.0 µM): 94%
- residual activity (PAK4 (human); compound 10.0 µM): 62%
- residual activity (MARK2 (human); compound 0.1 µM): 76%
- residual activity (MARK2 (human); compound 1.0 µM): 63%
- residual activity (MARK2 (human); compound 10.0 µM): 32%
- residual activity (MAPK12 (human); compound 0.1 µM): 78%
- residual activity (MAPK12 (human); compound 1.0 µM): 79%
- residual activity (NUAK1 (human); compound 0.1 µM): 57%
- residual activity (NUAK1 (human); compound 1.0 µM): 17%
- residual activity (NUAK1 (human); compound 10.0 µM): 5%
- residual activity (MARK1 (human); compound 0.1 µM): 88%
- residual activity (MARK1 (human); compound 1.0 µM): 54%
- residual activity (MARK1 (human); compound 10.0 µM): 14%
- residual activity (IRAK4 (human); compound 0.1 µM): 88%
- residual activity (IRAK4 (human); compound 1.0 µM): 91%
- residual activity (IRAK4 (human); compound 10.0 µM): 53%
- residual activity (MST4 (human); compound 0.1 µM): 105%
- residual activity (MST4 (human); compound 1.0 µM): 123%
- residual activity (MST4 (human); compound 10.0 µM): 181%
- residual activity (MAP3K11 (human); compound 0.1 µM): 86%
- residual activity (MAP3K11 (human); compound 1.0 µM): 33%
- residual activity (MAP3K11 (human); compound 10.0 µM): 8%
- residual activity (GSK3B (human); compound 0.1 µM): 81%
- residual activity (GSK3B (human); compound 1.0 µM): 83%
- residual activity (GSK3B (human); compound 10.0 µM): 62%
- residual activity (MAPKAPK2 (human); compound 0.1 µM): 81%
- residual activity (MAPKAPK2 (human); compound 1.0 µM): 91%
- residual activity (MAPKAPK2 (human); compound 10.0 µM): 73%
- residual activity (PAK6 (human); compound 0.1 µM): 108%
- residual activity (PAK6 (human); compound 1.0 µM): 107%
- residual activity (PAK6 (human); compound 10.0 µM): 100%
- residual activity (MAP3K9 (human); compound 0.1 µM): 104%
- residual activity (MAP3K9 (human); compound 1.0 µM): 70%
- residual activity (HIPK3 (human); compound 0.1 µM): 104%
- residual activity (HIPK3 (human); compound 10.0 µM): 90%
- residual activity (EPHB3 (human); compound 0.1 µM): 88%
- residual activity (EPHB3 (human); compound 1.0 µM): 75%
- residual activity (EPHB3 (human); compound 10.0 µM): 48%
- residual activity (MELK (human); compound 0.1 µM): 81%
- residual activity (MELK (human); compound 1.0 µM): 54%
- residual activity (MELK (human); compound 10.0 µM): 18%
- residual activity (MAP3K1 (human); compound 0.1 µM): 90%
- residual activity (MAP3K1 (human); compound 1.0 µM): 83%
- residual activity (MAP3K1 (human); compound 10.0 µM): 60%
- residual activity (EEF2K (human); compound 0.1 µM): 95%
- residual activity (EEF2K (human); compound 1.0 µM): 96%
- residual activity (EEF2K (human); compound 10.0 µM): 79%
- residual activity (DYRK2 (human)): 108%
